Source: PubChem BioAssay (NCI)
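Test compounds were applied to cells in 96-well plates for 48 hours at 5 doses. TGI is the concentration that stops growth completely.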

Experiments:
Experiment in all cases: NCI-60 cell line screen, 48 h
CAKI-1 renal = system: CAKI-1 renal
UO-31 renal = system: UO-31 renal
A498 renal = system: A498 renal
U251 CNS = system: U251 CNS
HOP-62 NSCLC = system: HOP-62 NSCLC
SK-MEL-5 melanoma = system: SK-MEL-5 melanoma
NCI/ADR-RES ovarian = system: NCI/ADR-RES ovarian
786-0 renal = system: 786-0 renal
ACHN renal = system: ACHN renal
OVCAR-5 ovarian = system: OVCAR-5 ovarian
MOLT-4 leukemia = system: MOLT-4 leukemia
NCI-H226 lung = system: NCI-H226 lung
UACC-62 melanoma = system: UACC-62 melanoma
SK-MEL-2 melanoma = system: SK-MEL-2 melanoma
PC-3 prostate = system: PC-3 prostate
BT-549 breast = system: BT-549 breast
KM12 colon = system: KM12 colon
TK-10 renal = system: TK-10 renal
OVCAR-8 ovarian = system: OVCAR-8 ovarian
HS 578T breast = system: HS 578T breast
SNB-19 CNS = system: SNB-19 CNS
T-47D breast = system: T-47D breast
COLO 205 colon = system: COLO 205 colon
MDA-N = system: MDA-N
HOP-92 NSCLC = system: HOP-92 NSCLC
MDA-MB-231 breast = system: MDA-MB-231 breast
HCT-116 colon = system: HCT-116 colon
OVCAR-4 ovarian = system: OVCAR-4 ovarian
SW-620 colon = system: SW-620 colon
SK-MEL-28 melanoma = system: SK-MEL-28 melanoma
HCC-2998 colon = system: HCC-2998 colon
MDA-MB-435 = system: MDA-MB-435
OVCAR-3 ovarian = system: OVCAR-3 ovarian
HT29 colon = system: HT29 colon
SF-539 CNS = system: SF-539 CNS
NCI-H522 lung = system: NCI-H522 lung
IGROV1 ovarian = system: IGROV1 ovarian
A549 NSCLC = system: A549 NSCLC
M14 melanoma = system: M14 melanoma
NCI-H23 lung = system: NCI-H23 lung
RXF 393 renal = system: RXF 393 renal
CCRF-CEM leukemia = system: CCRF-CEM leukemia
DU-145 prostate = system: DU-145 prostate
RPMI-8226 leukemia = system: RPMI-8226 leukemia
SNB-75 CNS = system: SNB-75 CNS
UACC-257 melanoma = system: UACC-257 melanoma
MALME-3M melanoma = system: MALME-3M melanoma
SN12C renal = system: SN12C renal
SF-268 CNS = system: SF-268 CNS
HCT-15 colon = system: HCT-15 colon
MCF7 breast = system: MCF7 breast
SF-295 CNS = system: SF-295 CNS
NCI-H460 lung = system: NCI-H460 lung
EKVX NSCLC = system: EKVX NSCLC
SK-OV-3 ovarian = system: SK-OV-3 ovarian
K-562 leukemia = system: K-562 leukemia
LOX IMVI melanoma = system: LOX IMVI melanoma

Measured: TGI

Brc1cccc(C2ON=C(c3ccccc3)N2C23CC4CC(CC(C4)C2)C3)c1 (stereo not drawn)
> 10 µM: all assays above

CC(C)(NC(=O)OCc1ccccc1)C(=O)OC(=O)C(C)(C)NC(=O)OCc1ccccc1
not listed: TK-10 renal | HCC-2998 colon | RXF 393 renal | DU-145 prostate | UACC-257 melanoma | SF-268 CNS
> 100 µM: all other assays above
